PubChem BioAssay AID1645848
In brackets after ≈: the same amount, converted by molar mass.

Conditions: buffer; pH 7.4; 6.0 h; 150.0 µM

Question: For `Cc1ccc(S(=O)(=O)Nc2ccncc2C(=O)Nc2nc(-c3ccccc3)cs2)cc1`, which solubility kinetic is on record?
Answer: < 1 µg/mL

Question: Which solubility kinetic does the source give for `CSc1cccc(NC(=O)CC[C@H]2O[C@@H]3O[C@]4(C)CC[C@H]5[C@H](C)CC[C@@H]([C@@H]2C)[C@@]35OO4)c1` here?
Answer: 1.2 µg/mL (≈ 2.6 µM)

Question: With `O=c1cc(-c2ccc(O)c(O)c2)oc2cc(O)cc(O)c12` as the molecule, how does the solubility kinetic read?
Answer: > 100 µg/mL

Question: Which solubility kinetic does the source give for `CCOc1ccc(CCNC(=O)c2cc3ccncc3n2Cc2cccc(C)n2)cc1OCC` here?
Answer: > 68 µg/mL

Question: Which solubility kinetic does the source give for `COc1cccc(CNc2ccc(S(=O)(=O)Nc3cccc(N4CCNCC4)c3)cc2)c1O` here?
Answer: 51.1 µg/mL (≈ 109 µM)

Question: For `COc1ccc(NC(=O)c2[nH]c(C)c(C(C)=O)c2C)cc1[S+](=O)([O-])Nc1ccccc1C#N`, which solubility kinetic is on record?
Answer: 55.6 µg/mL (≈ 119 µM)

Question: For `Cc1nn2c(c1-c1ccccc1-c1ccccc1)N(Cc1ccc(C(=O)O)s1)CCC2`, which solubility kinetic is on record?
Answer: > 63 µg/mL

Question: Which solubility kinetic does the source give for `O=C(O)C1CCN(c2ncc(-c3ccc4c(c3)OCCCO4)s2)CC1` here?
Answer: > 53 µg/mL

Question: For `Cc1ccc(-c2nn(C(C)(C)C)c3ncnc(N)c23)cc1`, which solubility kinetic is on record?
Answer: 2.5 µg/mL (≈ 8.88 µM)

Question: Which solubility kinetic does the source give for `CN1CCN(c2ccc(Nc3nc(-c4ccncc4)nc4ccccc34)cc2F)CC1` here?
Answer: 18.7 µg/mL (≈ 45.1 µM)

Question: For `O=C(Nc1ccccc1F)c1nc(S(=O)(=O)Cc2ccccc2F)ncc1Cl`, which solubility kinetic is on record?
Answer: 3.63 µg/mL (≈ 8.57 µM)

Question: With `CCOC(=O)c1c[nH]c2c3c(ccc2c1=O)CCCC3` as the molecule, how does the solubility kinetic read?
Answer: 34 µg/mL (≈ 125 µM)

Question: With `CS(=O)(=O)c1ccc(-c2csc(N3CCC(C(N)=O)CC3)n2)cc1` as the molecule, how does the solubility kinetic read?
Answer: 7.22 µg/mL (≈ 19.8 µM)

Question: For `COc1cccc(CNc2ccc(S(=O)(=O)Nc3cnc4ccccc4c3)cc2)c1O`, which solubility kinetic is on record?
Answer: < 1 µg/mL

Question: Which solubility kinetic does the source give for `CC(C)c1cc(C(=O)N2CC[C@@H](NC(=O)C3CC3)C2)n[nH]1` here?
Answer: > 43 µg/mL

Question: With `COc1ccc2[nH]c3c(c2c1)CCNC31CCN(S(=O)(=O)c2c(C)noc2C)CC1` as the molecule, how does the solubility kinetic read?
Answer: 7.38 µg/mL (≈ 17.1 µM)

Question: For `COc1cc(C(=S)N2CCN(CCO)CC2)ccc1OCc1ccc(C)cc1`, which solubility kinetic is on record?
Answer: 35.9 µg/mL (≈ 89.6 µM)

Question: With `COc1ccc2c3c([nH]c2c1)C1CC2C(CC(O)C(OC)C2CO)CN1CC3` (centres undefined) as the molecule, how does the solubility kinetic read?
Answer: > 57 µg/mL

Question: For `Cc1cc(C)nc(NC(=S)N2CCN(c3ccc4nsnc4c3)CC2)c1`, which solubility kinetic is on record?
Answer: 27.7 µg/mL (≈ 72.1 µM)

Question: For `CCOC(=O)c1nnc(N[S+](=O)([O-])c2ccc(NC(=O)Cc3ccc(Cl)c(Cl)c3)cc2)s1`, which solubility kinetic is on record?
Answer: > 76 µg/mL

Question: Which solubility kinetic does the source give for `Cc1ccc(C(=O)Nc2nc3nc(C)cc(=O)n3[nH]2)cc1` here?
Answer: > 42 µg/mL

Question: With `O=C(Nc1ncc(Cc2ccccc2)s1)c1ccc(-c2cccc([N+](=O)[O-])c2)o1` as the molecule, how does the solubility kinetic read?
Answer: < 1 µg/mL

Question: Which solubility kinetic does the source give for `Fc1ccc(CNc2cc3c(cn2)CN(Cc2ccncc2)CCN3)cc1` here?
Answer: 36.6 µg/mL (≈ 101 µM)

Question: Which solubility kinetic does the source give for `O=C(c1nc(-c2ccc(Cl)cc2Cl)c2cnccn12)N1CCOCC1` here?
Answer: 20.2 µg/mL (≈ 53.6 µM)

Question: Which solubility kinetic does the source give for `COc1ccc(C2=Nc3ccc(C)cc3C(c3ccccc3)N2CC(=O)NN)cc1` (centres undefined) here?
Answer: > 59 µg/mL

Question: For `O=S(=O)(Nc1ccc(C2CCNCC2)cc1)c1ccc(NCc2cccc(Cl)c2O)cc1`, which solubility kinetic is on record?
Answer: 47.2 µg/mL (≈ 100 µM)

Question: With `Cc1cc(C)nc(NC(=S)N2CCN(c3ccncc3)CC2)c1` as the molecule, how does the solubility kinetic read?
Answer: > 48 µg/mL

Question: For `CC(=O)OCCN1C(=O)c2c(C)nc3ccc(S(=O)(=O)N4CCOCC4)cc3c2C1=O`, which solubility kinetic is on record?
Answer: < 1 µg/mL

Question: For `Fc1ccc(CN2CCNc3cc(Nc4ccccc4)ncc3C2)cc1F`, which solubility kinetic is on record?
Answer: 45.3 µg/mL (≈ 124 µM)

Question: Which solubility kinetic does the source give for `Fc1ccc(Nc2cc(-c3ccccc3)nc(-c3ccncc3)n2)cc1F` here?
Answer: < 1 µg/mL

Question: For `COC(=O)c1ccc(NS(=O)(=O)c2c(C)nc3sccn3c2=O)cc1`, which solubility kinetic is on record?
Answer: > 56 µg/mL

Question: Which solubility kinetic does the source give for `Cc1cccc(CNc2ccc(S(=O)(=O)Nc3nccs3)cc2)c1O` here?
Answer: > 55 µg/mL

Question: For `O=C(Nc1ccc2oc(-c3cccnc3)nc2c1)c1ccc(-c2cccc(Cl)c2)o1`, which solubility kinetic is on record?
Answer: 1.1 µg/mL (≈ 2.65 µM)

Question: With `Cn1nnnc1Sc1ncnc2scc(-c3cccc(S(C)(=O)=O)c3)c12` as the molecule, how does the solubility kinetic read?
Answer: 44.8 µg/mL (≈ 111 µM)

Question: With `CC(C)c1ccccc1-c1ncc(F)c(NC(C)(C)c2ccc(-n3ccnn3)cc2)n1` as the molecule, how does the solubility kinetic read?
Answer: 1.14 µg/mL (≈ 2.74 µM)

Question: For `CCOc1cc2ncc(C#N)c(Nc3ccc(OCc4ccccn4)c(Cl)c3)c2cc1NC(=O)/C=C/CN(C)C`, which solubility kinetic is on record?
Answer: < 1 µg/mL

Question: For `CC(C)c1ccccc1-c1nc2c(c(NCc3ccc(-c4cccnc4)cc3)n1)CNC2`, which solubility kinetic is on record?
Answer: 40.9 µg/mL (≈ 97 µM)

Question: For `Cc1ccc(NS(=O)(=O)c2cccc(C(=O)O)c2)cc1S(=O)(=O)N1CCOCC1`, which solubility kinetic is on record?
Answer: > 65 µg/mL

Question: Which solubility kinetic does the source give for `CCc1ccccc1C(=O)N1CCc2cc(-c3nc(NC(=O)Cc4ccc5c(c4)OCO5)sc3C)ccc21` here?
Answer: < 1 µg/mL

Question: For `COc1ccc(-c2ccc3nc(-c4ccccc4C)oc3c2)c(OC)c1OC`, which solubility kinetic is on record?
Answer: < 1 µg/mL

Question: With `Cc1nn(CCc2nc(-c3ccccc3F)cs2)c2[nH]c(=O)cc(C(F)(F)F)c12` as the molecule, how does the solubility kinetic read?
Answer: < 1 µg/mL

Question: Which solubility kinetic does the source give for `COc1cc(C2CC(=O)Nc3cc4c(cc32)OCCO4)cc(Br)c1OC` (centres undefined) here?
Answer: < 1 µg/mL

Question: For `COc1ccc(-c2nc(CS(=O)CC(=O)N3CCC4(CC3)OCCO4)c(C)o2)cc1` (centres undefined), which solubility kinetic is on record?
Answer: > 64 µg/mL

Question: Which solubility kinetic does the source give for `COC(=O)c1ccc(O)c2ncc(N3CCN(C)CC3)cc12` here?
Answer: > 30 µg/mL

Question: Which solubility kinetic does the source give for `CCC(=O)NC(c1ccc(OC)cc1)c1cc(Cl)c2cccnc2c1O` (centres undefined) here?
Answer: < 1 µg/mL

Question: For `O=C1Nc2ccccc2/C1=C\c1ccc(C(=O)O)cc1`, which solubility kinetic is on record?
Answer: > 39 µg/mL

Question: For `COc1ccc2[nH]cc(CCNC(=O)c3cnn(-c4ccc(C)cc4)c3C3CCN(C(=O)OC(C)(C)C)CC3)c2c1`, which solubility kinetic is on record?
Answer: 1.56 µg/mL (≈ 2.8 µM)

Question: With `CCCc1cc(=O)oc2c3c(c4c(c12)OC(C)(C)C=C4)OC(C)C(C)C3O` (centres undefined) as the molecule, how does the solubility kinetic read?
Answer: < 1 µg/mL

Question: With `N[C@@H](Cc1cc(Br)c(O)c(Br)c1)C(=O)O` as the molecule, how does the solubility kinetic read?
Answer: > 50 µg/mL
